Assay results from patent US6569839B1, “Fast-acting pharmaceutical compositions and methods of use” (priority 1998, dated 2003).

Legend:
[1] = 1 gm interoperatively; total hip or knee joint replacements; 95% without steroid; cited from earlier work
[2] = in vivo
[3] = test system: gram negative organisms and many gram positive organisms which include staphylococcus aureus and staphylococcus epidermidis; conditions: cited from earlier work
[4] = 0.5%, continuous perineural infusion around the major nerve; cited from earlier work
[5] = I.V. every 90 minutes; cited from earlier work
[6] = 50 to 100 mg I.V. over a 40 to 120 second period; cited from earlier work
[7] = 1000 units of Heparin with 1 gm of Cefazolin; cited from earlier work
[8] = Absorption of antibiotic from the treated wound; assay type: in vivo; conditions: administered to the wound over 24 hour period
Experimental: In an embodiment of the present invention, a medicinal solution comprising Chloramphenicol can be prepared such that the patient receives only about 1-½ gm in a 24 hour period. Thus, if 100% was absorbed during the 24 hour period while treating a wound as, for example, following a total knee arthroplasty, the administered 1 ½ gm over a 24 hour is a safe dose, in fact, for three days. Since, however, only approximately 40% of the antibiotic is typically absorbed, the amount that is available to the bone marrow is, thus, very small. For patients with blood dyscrasias a dose of about 2 gm of Cephalosporin or a dose of about 1 gm Septaz can be used in place of a dose of about 1 g of Chloramphenicol for the 24 hour period.

[9] = test system: common bone and joint infections; conditions: cited from earlier work

**Q.** For `C[C@H]1C[C@@H]2[C@H]([C@@H](O)C[C@@]3(C)[C@H]2CC[C@]3(O)C(=O)COC(=O)CCC(=O)O)[C@@]2(C)C=CC(=O)C=C12` [Solumedrol], which “patients who experienced pain with interoperative steroid administration” value [1] is on record?
**A.** Its value is 33%.

**Q.** Which “complications if dosage is not strictly monitored” value [2] does the source give for `CCCCN1CCCCC1C(=O)Nc1c(C)cccc1C` (centres unmarked) [Marcaine] here?
**A.** Its value is “critical complications can occur”.

**Q.** Which Bacterial coverage [3] does the source give for `CC(C)(O/N=C(\C(=O)N[C@@H]1C(=O)N2C(C(=O)[O-])=C(C[n+]3ccccc3)CS[C@H]12)c1csc(N)n1)C(=O)O` [Ceftazidime] here?
**A.** The Bacterial coverage was “very good”.

**Q.** Which relief of pain [4] does the source give for `CCCCN1CCCCC1C(=O)Nc1c(C)cccc1C` (centres unmarked) [Bupicocaine] here?
**A.** Its relief of pain is “good relief of pain”.

**Q.** Which results are given for `CCN(CC)CC(=O)Nc1c(C)cccc1C` [Lidocaine]?
**A.** maximum suggested dose [5]: about 300 mg; ill effects [6]: without ill effects

**Q.** Which time compatible [7] does the source give for `Cc1nnc(SCC2=C(C(=O)O)N3C(=O)[C@@H](NC(=O)Cn4cnnn4)[C@H]3SC2)s1` [Cefazolin] here?
**A.** The time compatible was 24 h.

**Q.** Which “patients who experienced pain with interoperative steroid administration” value [1] does the source give for `C[C@]12CCC(=O)C=C1CC[C@@H]1[C@@H]2[C@@H](O)C[C@@]2(C)[C@H]1CC[C@]2(O)C(=O)COC(=O)CCC(=O)O` [Solu-Cortef, Hydrocortisone sodium succinate] here?
**A.** The value was 33%.

**Q.** Which “fraction of the antibiotic typically absorbed” value [8] does the source give for `O=C(N[C@H](CO)[C@H](O)c1ccc([N+](=O)[O-])cc1)C(Cl)Cl` [Chloramphenicol] here?
**A.** Its value is “approximately 40%”.

**Q.** What about the “effectiveness as broad-spectrum antibiotic” value ([9]; against the common bone and joint infections) of the same compound?
**A.** The value was “very effective”.

**Q.** And the reported blood toxicity ([9]; in vivo)?
**A.** Its reported blood toxicity is “aplastic anemia and other blood problems”.
